Reference: US11839207B1, “Essential oil-containing formulation for insecticide use, fertilizer application, and/or fertilizer coating” (priority 2019, dated 2023)

Tests used:
Format in all cases: in vivo
[1] = test system: Culex; experiment: Arm-in-cage (AIC) repellency test, Culex; conditions: 1 ml per 600 cm^2 on forearm
Experimental: (§1) Additional testing was conducted comparing the inventive formulation to DEET for the purposes of comparing insect repellency. In many insect repellency studies, there is often a lack of side-by-side comparisons for two or more insect repellents. The study conducted in connection with the inventive formulation sought to address this problem by directly comparing the two insect repellents based on the same active contents, i.e., 15% by weight. The study was conducted using both field testing and laboratory conditions. The tested formulation included ethanolic solutions of 15% DEET (m/m) and 15% of the inventive formulation, and the composition tested corresponded to the target composition described above. […] Under laboratory conditions, the efficacy of mosquito repellents is typically evaluated in the so-called “arm-in-cage” (AIC) test. […] In the field, similar endpoints may be determined on the basis of mosquitoes landing or biting on an exposed skin area, usually the lower leg, while the mosquitoes are collected by aspiration allowing for the identification of the mosquito species in a laboratory. […] In the AIC test the protection time of a repellent is assessed by exposing a treated forearm to hungry mosquitoes at regular intervals (grown from larvae and not fed for 12 hours before the test). The cages measured 16″×16″×14″ and were made of clear glass with an opening on the front side. […]

[2] = test system: mosquitoes; experiment: Field repellency test, human landing catch (HLC) method; conditions: relative protection percentages shown in the FIGURE
Experimental: Additional testing was conducted comparing the inventive formulation to DEET for the purposes of comparing insect repellency. In many insect repellency studies, there is often a lack of side-by-side comparisons for two or more insect repellents. The study conducted in connection with the inventive formulation sought to address this problem by directly comparing the two insect repellents based on the same active contents, i.e., 15% by weight. The study was conducted using both field testing and laboratory conditions. […] Under laboratory conditions, the efficacy of mosquito repellents is typically evaluated in the so-called “arm-in-cage” (AIC) test. […] In the field, similar endpoints may be determined on the basis of mosquitoes landing or biting on an exposed skin area, usually the lower leg, while the mosquitoes are collected by aspiration allowing for the identification of the mosquito species in a laboratory. […] The application volume was estimated on the basis of the surface area, calculated as the average of the circumferences just below the knee, the calf and the ankle, multiplied by the length of the lower leg, measured from below the knee to the ankle. […] Raw data was recorded on paper forms. […] The endpoint measured in the experiments was the number of mosquitoes landing on the bare skin during each exposure period. […]

[3] = test system: Anopheles; experiment: Arm-in-cage (AIC) repellency test, Anopheles; conditions: 1 ml per 600 cm^2 on forearm
Experimental: as §1

[4] = test system: Aedes; experiment: Arm-in-cage (AIC) repellency test, Aedes; conditions: 1 ml per 600 cm^2 on forearm
Experimental: as §1

## CCN(CC)C(=O)c1cccc(C)c1 [15% DEET, DEET]
[1]
  median CPT (complete protection time) in the AIC tests: 2 h
[2]
  efficacy in comparative study between AIC test and HLC method in the field: comparable efficacy
[3]
  median CPT (complete protection time) in the AIC tests: 2 h
[4]
  median CPT (complete protection time) in the AIC tests: 0.5 h
